Laboratory results: PubChem BioAssay AID1159563 (GlaxoSmithKline (GSK), 2015)
The source made the active and inactive calls. No rule for the calls is given here.

tested on: HepG2 cytotoxicity; assay: human hepatoma cell viability loss – cytotoxicity control (AID 1159563)

SMILES	IC50
CC(=Cc1ccccc1)CN1CCC(=O)N(Cc2cccnc2)CC1	> 100 µM (inactive)
Cc1ccccc1NS(=O)(=O)c1ccc2[nH]cc(C(=O)NC3CCCC3)c(=O)c2c1	25 µM
CCNc1cc(-c2ccccn2)nc(Nc2ccc(OC)cc2)n1	40 µM
COc1cccc2sc(CN(C)C(=O)C3CNCCN3c3ccc(F)cc3)c(C)c12 (stereo not drawn)	13 µM
CN(Cc1ccccc1)Cc1nnnn1C1CCN(Cc2ccc(-n3ccnc3)cc2)CC1	> 100 µM (inactive)
O=C(NCCc1csc(-c2cccc(F)c2)n1)c1ccco1	> 100 µM (inactive)
O=C(CN1CCN(c2ccccn2)CC1)Nc1cc(S(=O)(=O)N2CCCCCC2)ccc1Cl	> 100 µM (inactive)
Oc1c(-c2n[nH]c(Cc3ccc(F)cc3)n2)ncc2cccnc12	25 µM
O=C(CN(Cc1ccccn1)Cc1ccccn1)NCc1ccc(-c2csnn2)cc1	25 µM
CC(C)Oc1cccc(N2CCC(C(=O)N3CCCN(C(C)C)CC3)CC2)c1	> 100 µM (inactive)
COc1cc2c(cc1OC)[C@H]1[C@@H](C)c3ccc(OC)c(OC)c3CN1CC2	> 100 µM (inactive)
Cc1nn(C2CCS(=O)(=O)C2)c(C)c1CN(C)C(=O)C=Cc1sc2ccccc2c1Cl (stereo not drawn)	> 100 µM (inactive)
O=C(CSc1ccc(F)cc1)N[C@@H](Cc1cnc[nH]1)C(=O)NCCc1ccccc1	> 100 µM (inactive)
O=C(Nc1ccc(Br)cn1)c1ccc(Cn2cnc([N+](=O)[O-])n2)cc1	> 100 µM (inactive)
O=C(c1cccc(Nc2ncc(-c3ccc4c(c3)OCO4)cn2)c1)N1CCOCC1	> 130 µM (inactive)
CN(C)Cc1ccc(N2CCC(NS(=O)(=O)c3ccc(Cl)cc3)CC2)cc1	50 µM
COc1ccc(S(=O)(=O)NCc2ccc(-c3ccc(CN(C)CCO)cc3)cc2)cc1	50 µM
Cc1[nH]c2ccccc2c(=O)c1Cc1c(C)[nH]c2ccccc2c1=O	> 100 µM (inactive)
c1ccc(Nc2nc(-c3ccccn3)cc(N3CCOCC3)n2)cc1	> 100 µM (inactive)
COc1ncc(-c2ccc3nccc(-c4ccncc4)c3c2)cc1NS(=O)(=O)C1CC1	> 100 µM (inactive)
CS(=O)(=O)c1ccc(CC(=O)Nc2nc(-c3ccc(Cl)s3)cs2)cc1	> 100 µM (inactive)
Cn1ccnc1CN1CCc2[nH]cnc2C1c1ccccc1OCc1ccccc1 (stereo not drawn)	> 100 µM (inactive)
Cc1ccc(C)c(-n2nnnc2Sc2nc([N+](=O)[O-])nn2C)c1	> 100 µM (inactive)
COc1cc(OC)cc(C(NS(=O)(=O)c2ccc(Cl)c(C(F)(F)F)c2)c2nccn2C)c1 (stereo not drawn)	> 100 µM (inactive)
COc1ccc(Cl)cc1CC(=O)Nc1n[nH]c(-c2ccccn2)n1	32 µM

SMILES	IC50
NC(=O)c1ncc(N[C@@H]2CCCNC2)nc1Nc1cccc(Cl)c1	10 µM
CC1=NN(C(=O)CCn2cnc([N+](=O)[O-])n2)C(O)(C(F)(F)F)C1 (stereo not drawn)	> 100 µM (inactive)
CCCc1nc2nc(N)nc(N)c2cc1CC	20 µM
COc1ccc2c(Cl)c(C(=O)N3CCC3)sc2c1Cl	> 100 µM (inactive)
Cc1ccc(NC(C)C(=O)Nc2ccc(C#N)cc2)cc1S(=O)(=O)N1CCCCC1 (stereo not drawn)	79 µM
Cc1cc(N2CCc3ccccc3C2)nc(Nc2ccc(S(=O)(=O)N3CCOCC3)cc2)n1	> 100 µM (inactive)
CC(=O)Nc1cccc(Nc2ncnc3nc[nH]c23)c1	> 100 µM (inactive)
CCc1ccccc1[C@@H](C)NC(=O)c1cnc2c(cnn2CC)c1NC1CCN(C(N)=O)CC1	> 100 µM (inactive)
O=C(CN1CCC2(O)CCCCC2C1c1ccc2c(c1)OCO2)Nc1ccc(Cl)cc1Cl (stereo not drawn)	> 100 µM (inactive)
O=C(NCCc1ccn(-c2ccccc2)n1)C1CCCCC1	> 100 µM (inactive)
CN(C)Cc1ccc(-c2ccc(S(=O)(=O)NCC3CCCO3)c(F)c2)cc1 (stereo not drawn)	> 130 µM (inactive)
COc1cccc(NS(=O)(=O)c2ccc3[nH]cc(C(=O)NCCC(C)C)c(=O)c3c2)c1	32 µM
O=C1CSC(c2cccnc2)N1c1ccc(Cl)cc1Cl (stereo not drawn)	> 100 µM (inactive)
O=C(c1cnn(-c2ccccc2)n1)N1CCCC(n2ccnc2)C1 (stereo not drawn)	> 100 µM (inactive)
O=C(Nc1ccc(-c2nc3ccccc3c(=O)[nH]2)cc1)c1cccs1	> 100 µM (inactive)
CC(c1cc(Cl)cc(Cl)c1)N(C)c1ncc2c(N)nc(N)nc2n1 (stereo not drawn)	63 µM
COc1ccc(CNc2nsc3ccccc23)cc1OC	50 µM
Cc1cc(Br)cc(C(=O)c2c(C(C)C)c(=O)[nH]c(=O)n2Cc2ccnc(N)c2)c1	> 100 µM (inactive)
COc1ccc(NS(=O)(=O)c2cc(NC(=O)Cc3ccc(C)cc3)ccc2N2CCOCC2)cc1	> 100 µM (inactive)
COc1ccc(OC)c(S(=O)(=O)N(Cc2c(F)cccc2F)[C@@H]2CCN(C#N)C2)c1	79 µM
c1ccc(-c2nc(NC3CCCC3)c3ccccc3n2)nc1	16 µM
O=C1CN(Cc2ccco2)C2CS(=O)(=O)CC2N1c1ccc(Cl)cc1 (stereo not drawn)	> 100 µM (inactive)
CN(C)S(=O)(=O)c1ccc(Cl)c(C(=O)Nc2nc(-c3ccccn3)cs2)c1	> 100 µM (inactive)
Cc1ccc2c(c1)SC(C(=O)Nc1n[nH]c(-c3ccccn3)n1)C2 (stereo not drawn)	25 µM
COc1cccc(-c2cc(C(F)(F)F)nc(-n3ccc([N+](=O)[O-])n3)n2)c1	> 100 µM (inactive)

SMILES	IC50
O=C(Nc1ccc(C(=O)N2CCCC2c2ccc3c(c2)OCCCO3)cc1)c1ccco1 (stereo not drawn)	> 100 µM (inactive)
NC(=O)c1ccc(-c2cccc(OCCN3CCN(C4CCCCC4)CC3)c2)cc1	50 µM
C[C@@H](Oc1cc(-n2cnc3ccc(C(O)CO)cc32)sc1C(N)=O)c1ccccc1C(F)(F)F (stereo partly drawn)	> 10 µM (inactive)
O=C(NCc1ccc(Cl)cc1)C1CN(C(=O)c2ccc(F)cc2)CCS1 (stereo not drawn)	> 100 µM (inactive)
O=C(NCCc1cccnc1)c1ccc(-c2ccccc2F)o1	> 100 µM (inactive)
CN(Cc1cccnc1)Cc1ccc(N2CCN(C(=O)C3(c4ccc(Cl)cc4)CC3)CC2)nc1	> 100 µM (inactive)
Cc1nc(C(=O)Nc2ccc3c(c2)OCO3)nn1-c1ccc(F)cc1	> 100 µM (inactive)
CC(C)Nc1nc(Cl)nc2ccccc12	40 µM
CC(=O)Nc1ccc(-c2cnc(N)c(-c3nc4ccc(F)cc4[nH]3)c2)cc1	10 µM
CN(Cc1nc2ccc(C(=O)NCC3CCCCC3)cc2[nH]1)C1CCCc2cccnc21 (stereo not drawn)	16 µM
c1ccc(-c2nc(NC3CCCCC3)cc(C3CC3)n2)nc1	40 µM
COc1ccc(-c2cnc(C)o2)cc1S(=O)(=O)Nc1ccc(C)cc1C	> 100 µM (inactive)
CN(C)CCOc1ccc(N2CCN(S(=O)(=O)c3ccc(Cl)cc3)CC2)cc1	50 µM
COc1ccc(S(=O)(=O)Nc2ccccc2OC)cc1NC(=O)CCCc1c[nH]c2ccccc12	> 100 µM (inactive)
Cc1cc(N(C)C)nc2ccc(Cc3cnc(N)nc3N)cc12	32 µM
Cc1cccc(NS(=O)(=O)c2cnc3sc(C)cn3c2=O)c1	> 100 µM (inactive)
CC(C)(C)C(=O)Nc1cc(C2CC2)nn1-c1nc2c(c(=O)[nH]1)CCCC2	> 100 µM (inactive)
O=C(NCc1nnc2n1CCCCC2)c1ccc(-c2ccc(F)cc2)o1	> 100 µM (inactive)
COc1cc(OC)cc(C(=O)N[C@@H](CC(C)C)C(=O)NC2(C#N)CC2)c1	> 100 µM (inactive)
CCC(CC)C(=O)Nc1ccc(-c2nnc(-c3ccc(OC)cc3)o2)cc1	> 100 µM (inactive)
Clc1ccc(C(CC2CCCCO2)Cn2cncn2)c(Cl)c1 (stereo not drawn)	> 100 µM (inactive)
CC(C)(C)C(Cn1ccnc1)NC(=O)c1ccc2nc(C3CC3)oc2c1 (stereo not drawn)	> 100 µM (inactive)
CC(C)c1cc(Nc2cc(Cc3ccccc3)nc(NC3CCC(O)CC3)n2)n[nH]1 (stereo not drawn)	32 µM
CC(C)(C)CC(=O)NCCc1csc(-c2ccc(F)cc2)n1	> 100 µM (inactive)
O=C(CC1(O)C(=O)N(Cc2cccs2)c2ccc(Br)cc21)c1cccnc1 (stereo not drawn)	63 µM

SMILES	IC50
CN1CCC(N(C)c2nccc(N3CCN(C(=O)c4cccc(-c5cccnc5)c4)CC3)n2)CC1	40 µM
Cc1cccnc1CN1CCN(CCCOc2ccc(-c3ccc(C(N)=O)cc3)cc2)CC1	> 100 µM (inactive)
CCC(=O)N1N=C(c2ccc3c(c2)CCCC3)Sc2c1ncn2C(=O)CC	> 100 µM (inactive)
Cc1nc(-c2nc(NCc3ccc(Cl)cc3)c3cccnc3c2O)n[nH]1	16 µM
Cc1[nH]nc(-c2nc3ccccc3[nH]2)c1C(=O)NC1CCCNC1 (stereo not drawn)	> 100 µM (inactive)
Cc1cc(=O)n2nc(Oc3ccc(C#N)cc3Cl)sc2n1	40 µM
CC(C)Nc1nccc(-c2c(-c3ccc(F)cc3)ncn2C2CCOCC2)n1	> 100 µM (inactive)
Cc1c(C(C)NC(=O)Nc2cccc(Cl)c2)sc2ncnn12 (stereo not drawn)	> 100 µM (inactive)
O=C(Nc1nc(-c2ccccn2)cs1)c1ccccc1-n1cnnn1	1.6 µM
Cc1ccc2sc(NC(=O)Cn3cnc([N+](=O)[O-])n3)nc2c1	> 100 µM (inactive)
COc1ccc(CN2CCCCC2c2nc(-c3cccnc3)no2)cc1 (stereo not drawn)	> 100 µM (inactive)
O=c1[nH]c(NCCCNCc2cc(Br)cc(Br)c2)nc2ccsc12	50 µM
Cc1nn(-c2nc3ccccc3s2)c2c1C(c1ccc(OCC(N)=O)cc1)SCC(=O)N2 (stereo not drawn)	> 100 µM (inactive)
O=C(Nc1nc(-c2ccc(S(=O)(=O)N3CCOCC3)cc2)cs1)c1ccc([N+](=O)[O-])cc1	> 100 µM (inactive)
COc1cnc2ccc(=O)n(CCN3CCC(NC(=O)c4ccc(Cl)cc4)CC3)c2c1	> 100 µM (inactive)
Cc1ccc(CNC2CCN(C[C@@H]3Cn4c(=O)ccc5ccc(=O)n3c54)CC2)cc1F	> 100 µM (inactive)
Cc1nc(-c2ccc3c(c2)OCO3)sc1C(=O)NCc1ccc2c(c1)OCO2	> 100 µM (inactive)
Cc1cc(NC(=O)c2ccc([N+](=O)[O-])s2)ccc1Br	40 µM
CCN(CC)c1nc(N(C)C)nc2c1CN(Cc1ccccc1)CC2	63 µM
O=C(Nc1cccc(S(=O)(=O)Nc2ccc(Br)cc2)c1)c1ccc([N+](=O)[O-])s1	16 µM
O=C(Nc1cccc(Cl)c1)N1CCCCC1c1cccnc1 (stereo not drawn)	> 100 µM (inactive)
O=C(NCCCn1cnc2ccccc21)c1ccc(NC(=O)c2ccco2)cc1	16 µM
Cc1nn(-c2ccccc2)nc1CNC(=O)CN(Cc1ccccn1)Cc1ccccn1	> 130 µM (inactive)
